Results on 84 compounds are retold here after PubChem BioAssay AID732 (Emory University Molecular Libraries Screening Center, 2007).

For this test, the system named is in vivo angiogenesis, blood vessel count. The test can be described thus: angiogenesis inhibition in living animals, in vivo study, HTS (AID 732).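 Also: zebrafish embryos dosed at one day post fertilization; 0% = reference inhibitor and 100% = plate mean.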 Particulars: stronger effect = lower value;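 tested at 30 µM in the well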.

Values joined by “and” are separate entries in the source; they are usually repeats but may differ in a detail not shown here. Identical values can stand only once. Active and inactive are the calls of the source. No rule for the calls is given here.

Consider `C#CCN(C)Cc1ccccc1`, for which the vessel count % control is 91.4% (inactive).

For `Cc1cccc(C#Cc2ccccc2)n1`, the vessel count % control was 92.1% (inactive).

Consider `C[C@H]1O[C@@H](n2cc(F)c(=O)[nH]c2=O)[C@H](O)[C@@H]1O`, for which the vessel count % control was 108% (inactive).

Turning to `CCN(CC)CCNC(=O)c1cc(S(C)(=O)=O)ccc1OC`, the vessel count % control was 68.7% (inactive).

With `O=C1c2c(O)ccc(O)c2C(=O)c2c(NCCNCCO)ccc(NCCNCCO)c21`, the vessel count % control was 136% (inactive).

In the case of `CN1CCN(C(=O)OC2c3nccnc3C(=O)N2c2ccc(Cl)cn2)CC1` (centres undefined), the vessel count % control was 105% (inactive).

For `COC(=O)[C@@H]1[C@H]2C[C@H]3c4[nH]c5ccccc5c4CCN3C[C@@H]2CC[C@@H]1O`, the vessel count % control is 95.4% (inactive).

As for `C[C@]12CCC(=O)C=C1CC[C@@H]1[C@@H]2[C@@H](O)C[C@@]2(C)[C@H]1CC[C@]2(O)C(=O)CO`, the vessel count % control was 102% (inactive).

Consider `CC(N)Cc1c[nH]c2ccc(O)cc12` (centres undefined), for which the vessel count % control is 99.1% (inactive).

On to `CC(COc1ccc(/C=C/c2ccccc2)cc1)[N+](C)(C)C` (centres undefined), for which the vessel count % control was 106% (inactive).

In the case of `NC(N)=NOCC[C@H](N)C(=O)O`, the vessel count % control is 94.1% (inactive).

For the compound `NC(N)=N[C@@H](CCC(=O)O)C(=O)O`, the vessel count % control was 99.2% (inactive).

In the case of `CCN(CC)CCNC(=O)c1ccc(NC(C)=O)cc1`, the vessel count % control was 117% (inactive).

Take `Nc1ncnc2c1ncn2[C@@H]1O[C@H](CO)[C@H](O)C1O` (some centres undefined): the vessel count % control was 105% (inactive).

As to `C[C@]12CC[C@H](OS(=O)(=O)O)CC1=CC[C@@H]1[C@@H]2CC[C@]2(C)C(=O)CC[C@@H]12`, the vessel count % control was 90.1% (inactive).

Take `CCCN(CC1CC1)c1nc(C)nc(Nc2c(Cl)cc(Cl)cc2Cl)c1Cl`: the vessel count % control is 125% (inactive).

With `Fc1ccc([C@@H]2CCNC[C@H]2COc2ccc3c(c2)OCO3)cc1`, the vessel count % control is 138% (inactive).

Consider `O=c1c2ccccc2[se]n1-c1ccccc1`, for which the vessel count % control is 94.8% (inactive).

For `CCCN(CCc1ccccc1)C1CCc2c(O)cccc2C1` (centres undefined), the vessel count % control was 88.9% (inactive).

With `COc1ccccc1NC(=O)Nc1nc(-c2cccnc2)nc2ccccc12`, the vessel count % control is 85.6% (inactive).

As for `CCCCCCCC/C=C\CCCCCCCC(=O)NCCO`, the vessel count % control is 102% (inactive).

For `CNCC[C@H](Oc1ccc(C(F)(F)F)cc1)c1ccccc1`, the vessel count % control is 98.4% (inactive).

As to `CCCn1c(C)c(C(=O)c2ccc3ccccc3c2)c2ccccc21`, the vessel count % control is 110% (inactive).

`C=C(C)[C@H]1CN[C@H](C(=O)O)[C@H]1CC(=O)O`: the vessel count % control was 123% (inactive).

For the compound `O=C(CCc1ccc(O)cc1)c1c(O)cc(O)cc1O`, the vessel count % control was 124% (inactive).

As for `CN(C)CCCN1c2ccccc2Sc2ccc(Cl)cc21`, the vessel count % control was 84.3% (inactive).

Consider `O=C(O)CCCCCC[C@H]1C(=O)NC(=O)N1CC[C@@H](O)C1CCCCC1`, for which the vessel count % control is 93.1% (inactive).

With `O=Nc1c(-c2c(O)[nH]c3ccc([N+](=O)[O-])cc23)[nH]c2ccc(Br)cc12`, the vessel count % control was 79.3% (inactive).

As to `CC(C)C[C@H](NC(=O)[C@H](O)[C@H](N)Cc1ccccc1)C(=O)O`, the vessel count % control was 104% (inactive).

As to `N=c1c[n+](N2CCOCC2)[n-]o1`, the vessel count % control is 110% (inactive).

As for `CC[C@@H](CO)NC(=O)[C@@H]1C=C2c3cccc4[nH]cc(c34)C[C@H]2N(C)C1`, the vessel count % control was 121% (inactive).

Regarding `O=C(O)c1cc(=O)c2c(Cl)cc(Cl)cc2[nH]1`, the vessel count % control is 113% (inactive).

As to `O=C(O)c1ccccc1Nc1cccc(OCc2ccc3ccccc3n2)c1`, the vessel count % control was 85.3% (inactive).

Regarding `Cc1ccc(C(=O)Nc2ccc(S(=O)(=O)O)c3cc(S(=O)(=O)O)cc(S(=O)(=O)O)c23)cc1NC(=O)c1cccc(NC(=O)Nc2cccc(C(=O)Nc3cc(C(=O)Nc4ccc(S(=O)(=O)O)c5cc(S(=O)(=O)O)cc(S(=O)(=O)O)c45)ccc3C)c2)c1`, the vessel count % control is 119% (inactive).

Take `Cc1nnc(SCC2=C(C(=O)O)N3C(=O)[C@@H](NC(=O)Cn4cnnn4)[C@H]3SC2)s1`: the vessel count % control is 90.8% (inactive).

Regarding `CNC(=O)[C@H]1O[C@@H](n2cnc3c(NCc4cccc(I)c4)ncnc32)C(O)[C@H]1O` (some centres undefined), the vessel count % control was 83.3% (inactive).

Turning to `CN[C@@H](C)[C@H](O)c1ccccc1`, the vessel count % control was 91.4% (inactive).

On to `C[C@H](O)C(=O)C1=Nc2c(nc(N)[nH]c2=O)NC1`, for which the vessel count % control was 117% (inactive).

With `C[N+](C)(C)CCCCCC[N+](C)(C)C`, the vessel count % control was 115% (inactive) and 117% (inactive).

Consider `Clc1ccc2c(c1)C(N1CCNCC1)=Nc1ccccc1O2`, for which the vessel count % control is 98.2% (inactive).

Consider `N=c1nc(N2CCCCC2)cc(N)n1O`, for which the vessel count % control was 114% (inactive).

As for `Cn1cnc2c(NCc3ccccc3)nc(NCCO)nc21`, the vessel count % control was 98.8% (inactive).

Turning to `COc1ccc(Cc2nccc3cc(OC)c(OC)cc23)cc1OC`, the vessel count % control was 110% (inactive).

Take `NCCc1ccc(O)cc1`: the vessel count % control is 90.2% (inactive).

Consider `C[C@@H](Oc1ccc(Oc2cnc3ccc(Cl)cc3n2)cc1)C(=O)O`, for which the vessel count % control is 80.3% (inactive).

With `O=C1c2c(O)cc(O)cc2OC(c2ccc(O)c(O)c2)C1O` (centres undefined), the vessel count % control is 80.8% (inactive).

Consider `NCCCCCC(=O)O`, for which the vessel count % control is 116% (inactive).

As for `C[N+]1(C)CCc2cc3c(cc2[C@H]1[C@@H]1OC(=O)c2c1ccc1c2OCO1)OCO3`, the vessel count % control is 85.4% (inactive).

Consider `Cc1nc2c([nH]1)c(=O)n(C)c(=O)n2Cc1ccco1`, for which the vessel count % control was 93.1% (inactive).

Regarding `Cc1cc2c(cc1Cl)N(C(=O)Nc1ccnc3ccccc13)CC2`, the vessel count % control is 108% (inactive).

Take `O=C1CCCN1CC#CCN1CCCC1`: the vessel count % control is 99.6% (inactive).

Take `CCCNC[C@H](O)COc1ccccc1C(=O)CCc1ccccc1`: the vessel count % control is 93.1% (inactive).

As to `CC(C)c1ccc2c(c1)c(SC(C)(C)C)c(CC(C)(C)C(=O)O)n2Cc1ccc(Cl)cc1`, the vessel count % control is 99.4% (inactive).

Take `O=c1[nH]c2cc([N+](=O)[O-])c([N+](=O)[O-])cc2[nH]c1=O`: the vessel count % control was 104% (inactive).

For the compound `C[C@@H]1O[C@@H](O[C@H]2C[C@@H](O)[C@]3(CO)[C@@H]4C(CC[C@]3(O)C2)[C@@]2(O)CC[C@H](C3COC(=O)C3)[C@@]2(C)C[C@H]4O)[C@H](O)[C@H](O)[C@H]1O` (some centres undefined), the vessel count % control was 104% (inactive).

As to `COc1ccccc1N1CCN(CCCCNC(=O)c2ccc3ccccc3c2)CC1`, the vessel count % control is 52% (inactive).

For the compound `Cn1cnc([N+](=O)[O-])c1Sc1ncnc2nc[nH]c12`, the vessel count % control was 81.5% (inactive).

With `COC(=O)N1CCN(C(=O)Cc2ccc(Cl)c(Cl)c2)C(CN2CCCC2)C1` (centres undefined), the vessel count % control was 116% (inactive).

`COC(=O)[C@H]1[C@H]2C[C@H]3c4[nH]c5ccccc5c4CCN3C[C@H]2CC[C@@H]1O`: the vessel count % control is 110% (inactive).

On to `CC(=O)NNC(=O)N1Cc2ccccc2Oc2ccc(Cl)cc21`, for which the vessel count % control is 0% (inactive).

`Cc1cccc(C)c1OCC(N)C(C)C` (centres undefined): the vessel count % control was 112% (inactive).

Turning to `Cc1nc2ccccn2c(=O)c1CCN1CCC(C(=O)c2ccc(F)cc2)CC1`, the vessel count % control was 94.9% (inactive).

For the compound `CO/N=C(\C(=O)N[C@@H]1C(=O)N2C(C(=O)O)=C(COC(C)=O)CS[C@H]12)c1csc(N)n1` (stereo in doubt), the vessel count % control is 104% (inactive).

On to `Cc1ccc(OCC(O)C(C)NC(C)C)c2c1CCC2` (centres undefined), for which the vessel count % control is 103% (inactive).

In the case of `CCN1CCc2nc(N)oc2CC1`, the vessel count % control is 96.4% (inactive).

For `CCOC(=O)C1=C(C)NC(C)=C(C(=O)OC)C1c1cccc([N+](=O)[O-])c1` (centres undefined), the vessel count % control was 89.9% (inactive).

As to `Nc1ccc(CCN2CCN(c3cccc(C(F)(F)F)c3)CC2)cc1`, the vessel count % control is 96.3% (inactive).

`CC1CN(S(=O)(=O)c2cccc3cnccc23)CCN1` (centres undefined): the vessel count % control is 97.8% (inactive).

In the case of `C[C@]12CC[C@@H](O)CC1CC[C@@H]1[C@@H]2CC[C@]2(C)C(=O)CC[C@@H]12` (some centres undefined), the vessel count % control is 104% (inactive).

`CN(C)CCCN1c2ccccc2Sc2ccc(C(F)(F)F)cc21`: the vessel count % control is 105% (inactive).

Consider `O=C(O)CCC(NC(=O)c1ccccc1C(=O)O)C(=O)O` (centres undefined), for which the vessel count % control was 103% (inactive).

With `CN1Cc2c(N)cccc2C(c2ccccc2)C1` (centres undefined), the vessel count % control is 112% (inactive).

As for `NC(=O)c1cnccn1`, the vessel count % control is 76.5% (inactive).

Turning to `CN(N=O)c1cc(O)ccc1O`, the vessel count % control is 88% (inactive).

As for `O=[N+]([O-])c1cccc2cn[nH]c12`, the vessel count % control was 136% (inactive).

As for `C#CCN[C@H](C)Cc1ccccc1`, the vessel count % control was 114% (inactive).

For the compound `C=CCN1C[C@@H](C)N([C@H](c2ccc(C(=O)N(CC)CC)cc2)c2cccc(OC)c2)C[C@@H]1C`, the vessel count % control is 85.2% (inactive).

As to `COc1cc(C[C@@H](C)N)c(OC)cc1I`, the vessel count % control is 93.2% (inactive).

For the compound `O=C1CCC(N2C(=O)c3ccccc3C2=O)C(=O)N1` (centres undefined), the vessel count % control was 108% (inactive).

Turning to `CCCN1CCc2cc(O)cc3c2[C@H]1Cc1ccc(O)c(O)c1-3`, the vessel count % control was 114% (inactive).

For `Cc1cnc(NC(=O)C2=C(O)c3ccccc3S(=O)(=O)N2C)s1`, the vessel count % control is 136% (inactive).

Consider `Fc1ccc(C(OCCN2CCN(CCCc3ccccc3)CC2)c2ccc(F)cc2)cc1`, for which the vessel count % control is 71.4% (inactive).

For the compound `CCN1C(=O)C=CC1=O`, the vessel count % control was 104% (inactive).

With `Cc1c2ccncc2c(C)c2c1[nH]c1ccccc12`, the vessel count % control is 110% (inactive).
